From US20200276181A1, “THIENOISOQUINOLINES AND THEIR DERIVATIVES FOR TARGETING TUBULIN, CH-TOG, AURORA A KINASE, TPX2, CDK5RAP2 AND/OR ASPM” (VALORBEC, SEC, priority 2017, published 2020)

Assays:
A549 spheroids = assay: Multicellular tumour spheroids; assay type: cell-based, human
Method: (§1) FIGS. 5A, 5B, 5C, 5D, 5E, 5F, 5G, 5H, 5I, 5J, 5K, 5L and 5M show how C75 disrupts or reduces the growth of HeLa, HCT116 and A549 spheroids. FIG. 5A) images show HeLa spheroids over time (3 days) before and after treatment with control (1 μM C87; n=10), 250 nM (n=6) or 500 nM (n=10) of C75. The scale bar is 100 μm. FIG. 5B) is a series images of HeLa spheroids after three days of treatment with control (500 nM C87) or 500 nM C75. The spheroids were stained for fluorescein diacetate (to detect live cells) and propidium iodide (to detect dead cells). […] The scale bar is 100 μm. FIG. 5C) is a line graph showing the change in spheroid area (μm^2) for each day and treatment as indicated. Bars show standard deviation and the asterisks are p<0.05 as determined by the student's t test. FIG. 5D) images show HeLa spheroids over 3 days before and after treatment with empty nanoparticles (control; n=3) or 250 nM of nanoparticle-encapsulated C75 (n=3). The scale bar is 100 μm. […] Bars show standard deviation and the asterisks are p<0.05 as determined by the student's t test. FIG. 5F) is a series of images of HCT116 spheroids treated with control (1 μM C87; n=10), 500 nM C75 (n=10) and 1 μM C75 (n=10). […] Bars show standard deviation and the asterisks are p<0.05 as determined by the student's t test. […] Bars show standard deviation and the asterisks are p<0.05 as determined by the student's t test. […]

HeLa spheroids = assay: Multicellular tumour spheroids; assay type: cell-based, human
Method: as §1

HCT116 cells = assay: Viability IC50 of C75 in combination with subthreshold colchicine; assay type: cell-based; conditions: + 3 nM colchicine
Text: Bars show standard deviation. […] The scale bar for all cells is 10 μm. In FIG. 4F), bar graphs show changes in the proportion of HCT 116 cells with the different spindle phenotypes as in FIG. 4D (n=2368; N=3). […] Bars indicate standard deviation.

[1] = test system: HeLa cells with lower levels of endogenous ch-TOG (ch-TOG RNAi); assay: Spindle phenotypes with ch-TOG RNAi; assay type: cell-based, human; conditions: 200 nM C75 or 20 nM colchicine
Text: FIG. 7B) is a bar graph showing the proportion of phenotypes of the HeLa cells observed in the different conditions listed in 7A) (bipolar spindles in light grey; bipolar spindles with misaligned chromosomes in dark grey; multipolar/fragmented spindles in hatched lines; monopolar spindles in black).

COc1ccc(S(=O)(=O)N2Cc3ccccc3-c3sc(Br)cc32)cc1 [Compound C75]
effect on spheroids (A549 spheroids): regress the growth
effect on spheroids (HeLa spheroids): disrupt
lowering of the IC50 of C75 by subthreshold colchicine (HCT116 cells): ~2 fold
interaction with ch-TOG RNAi, fragmented spindle phenotype [1]: additive effect
